Experimental data taken from US20240092784A1, “CONDENSED HETEROCYCLIC COMPOUND” (NISSAN CHEMICAL CORPORATION, priority 2020, published 2024).
Where a name gives a salt, the structure may show the parent alone.

Target: human SPR (Homo sapiens (Human), UniProt P35270)
Assay: Evaluation Example 2: Measurement of human SPR inhibitory activity (seven concentrations, sepiapterin absorbance at 420 nm)
Format: biochemical
Conditions: Evaluation Example 2, seven concentrations 0.14 nM to 100 nM, 240 minutes at room temperature, read-out: IC50
Summary of the method: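 His-tagged full-length human SPR (1-261) was expressed in E. coli and the tag removed. Enzyme at 150 ng/mL in 100 mM Tris-HCl pH 7.5/0.01% BSA was mixed with compound (0.14–100 nM, seven points), 120 μM sepiapterin and 160 μM NADPH, both as added-solution concentrations. After 240 min at room temperature, remaining sepiapterin was read at 420 nm to give percent inhibition.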

human SPR, sequence (P35270 whole entry): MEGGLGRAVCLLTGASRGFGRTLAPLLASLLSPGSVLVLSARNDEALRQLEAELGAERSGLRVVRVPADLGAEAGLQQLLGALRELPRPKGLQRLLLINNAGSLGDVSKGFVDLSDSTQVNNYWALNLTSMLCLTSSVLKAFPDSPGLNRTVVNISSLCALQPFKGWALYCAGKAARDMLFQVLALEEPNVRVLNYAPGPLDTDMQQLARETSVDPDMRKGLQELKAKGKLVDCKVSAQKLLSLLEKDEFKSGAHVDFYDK

Question: For `CC(C)(C)Cn1c(=O)c(C(=O)NC2CC2)c(O)n2nc(N3CC[C@H](N)C3)cc12` [Synthesis Example 342, (S)-2-(3-Aminopyrrolidin-1-yl)-N-cyclopropyl-7-hydroxy-4-neopentyl-5-oxo-4,5-dihydropyrazolo[1,5-a]pyrimidine-6-carboxamide], which IC50 is on record?
Answer: 2.31 nM

Question: For `CC(C)Cn1c(=O)c(C(=O)NC2CC2)c(O)n2ncc(/C=C/C(=O)N3CCC3)c12` [compound 553, (E)-3-(3-(Azetidin-1-yl)-3-oxoprop-1-en-1-yl)-N-cyclopropyl-7-hydroxy-4-isobutyl-5-oxo-4,5-dihydropyrazolo[1,5-a]pyrimidine-6-carboxamide], which IC50 is on record?
Answer: 0.99 nM

Question: `CC[C@@H]1COCCN1C(=O)/C=C/c1c(C)nn2c(O)c(C(=O)NC3CC3)c(=O)n(CC(C)C)c12` [compound 573, (R,E)-N-Cyclopropyl-3-(3-(3-ethylmorpholino)-3-oxoprop-1-en-1-yl)-7-hydroxy-4-isobutyl-2-methyl-5-oxo-4,5-dihydropyrazolo[1,5-a]pyrimidine-6-carboxamide] was tested. Which IC50 did it give?
Answer: 0.88 nM

Question: For `CC(C)Cn1c(=O)c(C(=O)NC2CC2)c(O)n2ncc(/C=C/C(=O)N3CCC[C@@H](CO)C3)c12` [compound 520, (R,E)-N-Cyclopropyl-7-hydroxy-3-(3-(3-(hydroxymethyl)piperidin-1-yl)-3-oxoprop-1-en-1-yl)-4-isobutyl-5-oxo-4,5-dihydropyrazolo[1,5-a]pyrimidine-6-carboxamide], which IC50 is on record?
Answer: 0.77 nM

Question: For `Cn1cc(-c2cc3n(CC(C)(C)C)c(=O)c(C(=O)NC4CC4)c(O)n3n2)c(C(N)=O)n1` [Synthesis Example 310, 2-(3-Carbamoyl-1-methyl-1H-pyrazol-4-yl)-N-cyclopropyl-7-hydroxy-4-neopentyl-5-oxo-4,5-dihydropyrazolo[1,5-a]pyrimidine-6-carboxamide], which IC50 is on record?
Answer: 2.47 nM

Question: `CC(C)(C)Cn1c(=O)c(C(=O)NC2CC2)c(O)n2nc(N)c(/C=C/C(=O)N3CCOCC3)c12` [Synthesis Example 411, (E)-2-Amino-N-cyclopropyl-7-hydroxy-3-(3-morpholino-3-oxoprop-1-en-1-yl)-4-neopentyl-5-oxo-4,5-dihydropyrazolo[1,5-a]pyrimidine-6-carboxamide] was tested. Which IC50 did it give?
Answer: 0.65 nM

Question: How did the IC50 turn out when `CC(C)Cn1c(=O)c(C(=O)NC2CC2)c(O)n2nc(NC(=O)OC(C)(C)C)c(/C=C/C(=O)N3CCOCC3)c12` [Synthesis Example 415, Tert-butyl (E)-(6-(cyclopropylcarbamoyl)-7-hydroxy-4-isobutyl-3-(3-morpholino-3-oxoprop-1-en-1-yl)-5-oxo-4,5-dihydropyrazolo[1,5-a]pyrimidin-2-yl)carbamate] was run?
Answer: 0.74 nM

Question: With `CC(C)Cn1c(=O)c(C(=O)NC2CC2)c(O)n2ncc(/C=C/C(=O)N3[C@H](C)COC[C@H]3C)c12` [compound 556, N-Cyclopropyl-3-((E)-3-((3R,5R)-3,5-dimethylmorpholino)-3-oxoprop-1-en-1-yl)-7-hydroxy-4-isobutyl-5-oxo-4,5-dihydropyrazolo[1,5-a]pyrimidine-6-carboxamide] as the molecule, how does the IC50 read?
Answer: 0.62 nM

Question: With `CC(C)(C)Cn1c(=O)c(C(=O)NC2CC2)c(O)n2nc3c(c12)CN(C1CCOCC1)C(=O)N3` [Synthesis Example 405, N-Cyclopropyl-8-hydroxy-5-neopentyl-2,6-dioxo-3-(tetrahydro-2H-pyran-4-yl)-1,2,3,4,5,6-hexahydropyrazolo[1,5-a:3,4-d′]dipyrimidine-7-carboxamide] as the molecule, how does the IC50 read?
Answer: 0.77 nM

Question: How did the IC50 turn out when `CC(C)(C)Cn1c(=O)c(C(=O)NC2CC2)c(O)n2nc(Nc3cnc(C(C)(C)O)cn3)cc12` [Synthesis Example 349, N-Cyclopropyl-7-hydroxy-2-((5-(2-hydroxypropan-2-yl)pyrazin-2-yl)amino)-4-neopentyl-5-oxo-4,5-dihydropyrazolo[1,5-a]pyrimidine-6-carboxamide] was run?
Answer: 1.36 nM

Question: `CC(C)(C)Cn1c(=O)c(C(=O)NC2CC2)c(O)n2nc(-c3cnccc3F)cc12` [Synthesis Example 295, N-Cyclopropyl-2-(4-fluoropyridin-3-yl)-7-hydroxy-4-neopentyl-5-oxo-4,5-dihydropyrazolo[1,5-a]pyrimidine-6-carboxamide] was tested. Which IC50 did it give?
Answer: 2.48 nM

Question: How did the IC50 turn out when `CC(C)(C)Cn1c(=O)c(C(=O)NC2CC2)c(O)n2nc(N)c(/C=C/C3CC3)c12` [Synthesis Example 440, (E)-2-Amino-N-cyclopropyl-3-(2-cyclopropylvinyl)-7-hydroxy-4-neopentyl-5-oxo-4,5-dihydropyrazolo[1,5-a]pyrimidine-6-carboxamide hydrochloride] was run?
Answer: 1.2 nM

Question: `Cc1nn2c(O)c(C(=O)NC3CC3)c(=O)n(CC(C)C)c2c1/C=C/C(=O)N1[C@@H](C)CC[C@@H]1C` [Synthesis Example 617, N-Cyclopropyl-3-((E)-3-((2S,5S)-2,5-dimethylpyrrolidin-1-yl)-3-oxoprop-1-en-1-yl)-7-hydroxy-4-isobutyl-2-methyl-5-oxo-4,5-dihydropyrazolo[1,5-a]pyrimidine-6-carboxamide] was tested. Which IC50 did it give?
Answer: 1.04 nM

Question: For `CC(C)Cn1c(=O)c(C(=O)NC2CC2)c(O)n2ncc(/C=C/C(=O)N3CCN(C4CC(F)(F)C4)CC3)c12` [compound 460, (E)-N-Cyclopropyl-3-(3-(4-(3,3-difluorocyclobutyl)piperazin-1-yl)-3-oxoprop-1-en-1-yl)-7-hydroxy-4-isobutyl-5-oxo-4,5-dihydropyrazolo[1,5-a]pyrimidine-6-carboxamide], which IC50 is on record?
Answer: 1.24 nM

Question: With `COC(C)Cn1c(=O)c(C(=O)NC2CC2)c(O)n2ncc(/C=C/C(=O)N3CCOCC3)c12` (single isomer, unassigned) [Synthesis Example 385, (E)-N-Cyclopropyl-7-hydroxy-4-(2-methoxypropyl)-3-(3-morpholino-3-oxoprop-1-en-1-yl)-5-oxo-4,5-dihydropyrazolo[1,5-a]pyrimidine-6-carboxamide] as the molecule, how does the IC50 read?
Answer: 0.83 nM

Question: With `CC(C)Cn1c(=O)c(C(=O)NC2CC2)c(O)n2ncc(/C=C/C(=O)N3CCC(C)(C)C3)c12` [compound 479, (E)-N-Cyclopropyl-3-(3-(3,3-dimethylpyrrolidin-1-yl)-3-oxoprop-1-en-1-yl)-7-hydroxy-4-isobutyl-5-oxo-4,5-dihydropyrazolo[1,5-a]pyrimidine-6-carboxamide] as the molecule, how does the IC50 read?
Answer: 1.05 nM

Question: With `CC(C)(C)Cn1c(=O)c(C(=O)NC2CC2)c(O)n2nc(-c3n[nH]cc3C(F)(F)F)cc12` [Synthesis Example 298, N-Cyclopropyl-7-hydroxy-4-neopentyl-5-oxo-2-(4-(trifluoromethyl)-1H-pyrazol-3-yl)-4,5-dihydropyrazolo[1,5-a]pyrimidine-6-carboxamide] as the molecule, how does the IC50 read?
Answer: 3.11 nM

Question: With `CC(C)Cn1c(=O)c(C(=O)NC2CC2)c(O)n2ncc(/C=C/C3CCNCC3)c12` [Synthesis Example 241, (E)-N-Cyclopropyl-7-hydroxy-4-isobutyl-5-oxo-3-(2-(piperidin-4-yl)vinyl)-4,5-dihydropyrazolo[1,5-a]pyrimidine-6-carboxamide hydrochloride] as the molecule, how does the IC50 read?
Answer: 1.98 nM

Question: How did the IC50 turn out when `COC[C@@H]1COCCN1C(=O)/C=C/c1cnn2c(O)c(C(=O)NC3CC3)c(=O)n(CC3(C)CC3)c12` [Synthesis Example 372, (R,E)-N-Cyclopropyl-7-hydroxy-3-(3-(3-(methoxymethyl)morpholino)-3-oxoprop-1-en-1-yl)-4-((1-methylcyclopropyl)methyl)-5-oxo-4,5-dihydropyrazolo[1,5-a]pyrimidine-6-carboxamide] was run?
Answer: 0.55 nM

Question: How did the IC50 turn out when `Cc1nn2c(O)c(C(=O)NC3CC3)c(=O)n(CC(C)C)c2c1/C=C/C(=O)N1C[C@@H](C)OC[C@@H]1C` [Synthesis Example 647, N-Cyclopropyl-3-((E)-3-((2R,5S)-2,5-dimethylmorpholino)-3-oxoprop-1-en-1-yl)-7-hydroxy-4-isobutyl-2-methyl-5-oxo-4,5-dihydropyrazolo[1,5-a]pyrimidine-6-carboxamide] was run?
Answer: 0.81 nM

Question: How did the IC50 turn out when `CC(C)Cn1c(=O)c(C(=O)NC2CC2)c(O)n2ncc(/C=C/C3CC3)c12` [Synthesis Example 246, (E)-N-Cyclopropyl-3-(2-cyclopropylvinyl)-7-hydroxy-4-isobutyl-5-oxo-4,5-dihydropyrazolo[1,5-a]pyrimidine-6-carboxamide] was run?
Answer: 1.19 nM

Question: Which IC50 does the source give for `CC(C)Cn1c(=O)c(C(=O)NC2CC2)c(O)n2ncc(/C=C/C3=NCC(C)(C)O3)c12` [Synthesis Example 266, (E)-N-Cyclopropyl-3-(2-(5,5-dimethyl-4,5-dihydrooxazol-2-yl)vinyl)-7-hydroxy-4-isobutyl-5-oxo-4,5-dihydropyrazolo[1,5-a]pyrimidine-6-carboxamide] here?
Answer: 1.58 nM

Question: With `CC(C)Cn1c(=O)c(C(=O)NC2CC2)c(O)n2ncc(/C=C/C(=O)N3CCS(=O)(=O)CC3)c12` [compound 514, (E)-N-Cyclopropyl-3-(3-(1,1-dioxidothiomorpholino)-3-oxoprop-1-en-1-yl)-7-hydroxy-4-isobutyl-5-oxo-4,5-dihydropyrazolo[1,5-a]pyrimidine-6-carboxamide] as the molecule, how does the IC50 read?
Answer: 0.58 nM

Question: For `CC(C)Cn1c(=O)c(C(=O)NC2CC2)c(O)n2nc(/N=C/N(C)C)cc12` [Synthesis Example 363, (E)-N-Cyclopropyl-2-(((dimethylamino)methylene)amino)-7-hydroxy-4-isobutyl-5-oxo-4,5-dihydropyrazolo[1,5-a]pyrimidine-6-carboxamide hydrochloride], which IC50 is on record?
Answer: 1.61 nM

Question: How did the IC50 turn out when `CC(C)(C)Cn1c(=O)c(C(=O)NC2CC2)c(O)n2nc(Nc3cncc(C(F)(F)F)n3)cc12` [Synthesis Example 331, N-Cyclopropyl-7-hydroxy-4-neopentyl-5-oxo-2-((6-(trifluoromethyl)pyrazin-2-yl)amino)-4,5-dihydropyrazolo[1,5-a]pyrimidine-6-carboxamide] was run?
Answer: 1.71 nM

Question: `CC(C)(C)Cn1c(=O)c(C(=O)NC2CC2)c(O)n2nc(-c3cccnc3C(F)F)cc12` [Synthesis Example 297, N-Cyclopropyl-2-(2-(difluoromethyl)pyridin-3-yl)-7-hydroxy-4-neopentyl-5-oxo-4,5-dihydropyrazolo[1,5-a]pyrimidine-6-carboxamide] was tested. Which IC50 did it give?
Answer: 3.32 nM
